We go through 15 molecules from article PMC11472313, “Development of Fragment-Based Inhibitors of the Bacterial Deacetylase LpxC with Low Nanomolar Activity” (Journal of Medicinal Chemistry, 2024).

For assay [1], the system named is E. coli LpxC (EcLpxC). To be noted: cited from earlier work.
The test system of assay [2] is P. aeruginosa LpxC (PaLpxC). Conditions: cited from earlier work.
Assay [3] deals with T1, LasB (Pseudomonas aeruginosa, UniProt Q02RJ6).
T1 construct: The elastase LasB of P. aeruginosa is a secreted metalloprotease; endogenous in cells; host or cells: P. aeruginosa PA14 culture supernatant
T1 sequence (Q02RJ6 198-498): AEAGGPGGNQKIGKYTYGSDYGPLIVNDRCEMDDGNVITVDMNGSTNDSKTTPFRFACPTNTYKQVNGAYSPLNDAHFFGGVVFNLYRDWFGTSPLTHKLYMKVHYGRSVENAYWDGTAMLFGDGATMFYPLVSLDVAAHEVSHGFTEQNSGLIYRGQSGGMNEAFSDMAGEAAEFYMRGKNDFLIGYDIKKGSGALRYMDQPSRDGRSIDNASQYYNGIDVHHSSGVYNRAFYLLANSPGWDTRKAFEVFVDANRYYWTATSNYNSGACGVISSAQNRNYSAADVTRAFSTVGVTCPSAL
Conditions: cited from earlier work.

For assay [4], the system named is E. coli BL21(DE3). Conditions: cited from earlier work.
Assay [5] deals with T2, E. coli LpxC C63A (Escherichia coli, UniProt P0A725, C63A).
T2 construct: made in house; host or cells: E. coli BL21(DE3)
T2 sequence (P0A725 whole entry C63A): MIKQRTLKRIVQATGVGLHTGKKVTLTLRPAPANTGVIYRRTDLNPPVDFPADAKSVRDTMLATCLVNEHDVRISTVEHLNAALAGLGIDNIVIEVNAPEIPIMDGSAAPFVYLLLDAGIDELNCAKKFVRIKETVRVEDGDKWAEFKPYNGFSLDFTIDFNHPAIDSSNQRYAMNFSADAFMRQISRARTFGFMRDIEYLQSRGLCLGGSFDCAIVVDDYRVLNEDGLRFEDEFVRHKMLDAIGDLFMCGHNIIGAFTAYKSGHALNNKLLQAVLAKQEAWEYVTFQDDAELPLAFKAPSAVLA
To be noted: versus (2R,3S)-10; cited from earlier work.

In assay [6] the test system is E. coli D22. Kind of assay: MIC, broth microdilution. The format is cell-based. To be noted: Escherichia coli, 20 h, 37 °C, LB. How it is done: (§1) Besides measuring the inhibitory activities toward E. coli LpxC C63A, the antibacterial activities of the synthesized hydroxamic acids were evaluated by determining their minimal inhibitory concentrations (MIC) in broth dilution tests as well as by performing disc diffusion assays (Table 1).
(§2) The MIC values of the compounds were determined by means of the microdilution method using 96-well plates.
(§3) The overnight suspension was diluted 1:1000 in fresh LB. 10 μL of a 2-fold dilution series of the compounds in DMSO and 90 μL of LB were dispensed to each well of a 96-well plate. Then, 100 μL of the inoculated medium was added, resulting in 5 × 10^5 cfu mL^–1, 5% DMSO, and a final concentration range of the test compounds between 64 and 0.016 μg mL^–1. The plates were incubated for 20 h at 37 °C. The MIC was defined as the lowest concentration of the compounds that prevented visible growth after incubation. Each assay was performed at least three times on separate days.
On the technique in general: In broth dilution the organism is exposed to a series of concentrations in liquid medium.

Assay [7] relates to E. coli BL21(DE3). The assay can be described thus: MIC, broth microdilution. Conditions: Escherichia coli, 20 h, 37 °C, LB. It counts as cell-based. The method, then: as §1, §2, §3
Assay [8] concerns K. pneumoniae ATCC 700603. The assay can be described thus: disc diffusion assay. Conditions: 0.15 μmol per 6 mm disc. It counts as cell-based, Klebsiella pneumoniae. How it is done:
(§4) In the performed disc diffusion assays, indole derivatives (S)-13h, (S)-13i, and (S)-13j caused promising halos of growth inhibition.
(§5) The disc diffusion assays against E. coli TOP10 (Thermo Fisher, Waltham, USA), E. coli ATCC 35218, K. pneumoniae ATCC 700603, and P. aeruginosa ATCC 27853 were performed as follows: the bacteria were grown overnight on a Columbia blood agar plate (Oxoid, Basingstoke, UK), and one colony was suspended in sterile saline to yield a suspension of 0.5 McFarland standard. Using a sterile swab, the suspension was spread evenly onto Mueller–Hinton agar (Oxoid, Basingstoke, UK). 0.15 μmol of each compound (dissolved in 10 μL DMSO) was applied onto circular 6 mm diameter filter paper disks, which were then placed on the agar. After incubating the agar plates for 20 h at 37 °C, the diameter of the zone of growth inhibition was measured for each compound.
(Agar diffusion results depend on both activity and mobility in agar.)

Assay [9] has as its system E. coli TOP10. Kind of assay: disc diffusion assay. The format is cell-based. Conditions: 0.15 μmol per 6 mm disc. The method, then:
as §4, §5

Assay [10] deals with E. coli ATCC 35218. The assay can be described thus: disc diffusion assay. The format is cell-based. Conditions: 0.15 μmol per 6 mm disc. How it is done:
as §4, §5

The test system of assay [11] is P. aeruginosa ATCC 27853. Kind of assay: disc diffusion assay. Conditions: 0.15 μmol per 6 mm disc. It counts as cell-based. How it is done: as §4, §5
Assay [12] addresses T2, E. coli LpxC C63A. Kind of assay: fluorescence-based E. coli LpxC C63A enzyme inhibition assay. Conditions: Ki E. coli LpxC C63A, from IC50 via Cheng–Prusoff. It counts as biochemical. How it is done: In order to determine the inhibitory activities of the compounds of interest toward E. coli LpxC, a fluorescence-based enzyme assay was deployed, in which the formed deacetylated natural product UDP-3-O-[(R)-3-hydroxymyristoyl]glucosamine (2) is transformed into a fluorescent isoindole with o-phthaldialdehyde and 2-mercaptoethanol.[48],[49] […] The KM of E. coli LpxC C63A was determined experimentally using a mass spectrometry-based LpxC assay (Figure S8, Supporting Information, vide infra).
A fluorescence-based microplate assay for LpxC activity was performed as described by Clements et al.[48] The wells in a black, nonbinding, 96-well fluorescence microplate (Greiner Bio One, Frickenhausen) were filled with 93 μL of 26.9 μM UDP-3-O-[(R)-3-hydroxymyristoyl]-N-acetylglucosamine in assay buffer [40 mM sodium morpholinoethanesulfonic acid (pH 6.0), 80 μM dithiothreitol, 0.02% Brij 35]. In order to assay the inhibitors at final concentrations from 20 nM up to 20 μM, 2 μL of a respective dilution of the compounds in DMSO were added. The addition of 5 μL of a solution of purified LpxC (10 μg mL^–1) in assay buffer led to final concentrations of 25 μM UDP-3-O-[(R)-3-hydroxymyristoyl]-N-acetylglucosamine, 15 nM E. coli LpxC C63A, 2% DMSO, and from 20 nM up to 20 μM inhibitor. The microplate was incubated for 30 min at 37 °C in a plate shaker. Then, the biochemical reaction was stopped by adding 40 μL of 0.625 M sodium hydroxide. The reaction mixture was further incubated for 10 min and neutralized by adding 40 μL of 0.625 M acetic acid. The deacetylated product UDP-3-O-[(R)-3-hydroxymyristoyl]glucosamine was converted into a fluorescing isoindole by adding 120 μL of an o-phthaldialdehyde-2-mercaptoethanol solution, which was prepared by dissolving 10 mg of o-phthaldialdehyde in 1 mL of methanol, diluting the mixture with 24 mL of a sodium borate buffer (0.1 M), and finally adding 2.5 μL of 2-mercaptoethanol.[49] Fluorescence was measured with a TriStar^2 S LB 942 plate reader (Berthold, Bad Wildbad) at 340 nm excitation and 460 nm emission wavelengths. Each assay was performed at least three times on separate days. The IC50 values were calculated via Probit-log concentration graphs with the aid of the software Origin and were subsequently converted into Ki values using the Cheng–Prusoff equation.[75],[76]

Assay [13] deals with T1, LasB. Kind of assay: FRET-based LasB in vitro inhibition assay. The format is biochemical, P. aeruginosa PA14. The method, then: Purification of LasB from P. aeruginosa PA14 supernatant and the subsequent performance of the FRET-based in vitro inhibition assay was performed as described previously.[66] The TACE (ADAM-17) inhibitor screening kit was purchased from Sigma-Aldrich (Saint Louis, MO). MMPs 1–3 along with the SensoLyte 520 Generic MMP Activity Kit Fluorimetric were purchased from AnaSpec (Fremont, CA, USA). The assays were performed according to the guidelines of the respective manufacturer. Fluorescence signals were measured using a CLARIOstar plate reader (BMG Labtech, Ortenberg, Germany).

Assay [14] relates to E. coli D22. The assay can be described thus: disc diffusion assay. It counts as cell-based. Conditions: 0.15 μmol per 6 mm disc. The method, then:
as §1
(§6) The disc diffusion assays against E. coli BL21(DE3) and the defective strain E. coli D22 were performed as follows: liquid cultures of the bacteria were grown overnight in lysogeny broth (LB)[73] at 37 °C and 200 rpm. 150 μL of an overnight cell suspension was spread evenly onto LB agar plates. 0.15 μmol of each compound (dissolved in 10 or 15 μL DMSO) were applied onto circular filter paper (Ø = 6 mm, Cytiva). Pure DMSO, serving as a negative control, and CHIR-090, serving as a positive control, were also spotted. The agar plates were incubated overnight at 37 °C, and the diameter of the zone of growth inhibition was measured for each compound. Each assay was performed at least three times on separate days.

The subject of assay [15] is E. coli BL21(DE3). Kind of assay: disc diffusion assay. It counts as cell-based. To be noted: 0.15 μmol per 6 mm disc. The method, then: as §1, §6

Converted amounts (≈) assume the structure as drawn. Read-outs that look alike come from different tables or passages of the source.

A word on the IC50: it is the point on the concentration scale where inhibition reaches its midpoint. Take `O=c1ccn([C@@H]2O[C@H](CO/N=C/c3ccc(O)c(O)c3O)[C@@H](O)[C@H]2O)c(=O)[nH]1` [1-68A, 1–68A]: the IC50 in assay [1] is 27000 nM. As usually defined, the Ki is the equilibrium dissociation constant of an inhibitor or competing ligand from its target. Turning to `CC(O)(c1ccc(O)cc1)C(NC(=O)c1ccc(C#CC#Cc2ccc(N)cc2)cc1)C(=O)NO` (stereo not drawn) [3b], the Ki in assay [1] was 0.024 nM. For the molecule `C[C@@](CO)(OCc1ccc(-c2ccccc2)cc1)C(=O)NO` [5a], in assay [2], the IC50 was 22 nM. `C[C@@](OCc1ccc(-c2ccccc2)cc1)(C(=O)NO)[C@@H](O)c1ccccn1` [5b]: the half-maximal inhibitory concentration (IC50) in assay [2] is 15 nM. On to `C[C@@](OCc1ccc(-c2ccccc2)cc1)(C(=O)NO)[C@@H](O)c1cnc[nH]1` [5c], for which, in assay [2], the IC50 was 0.8 nM. On to `Cc1cc([C@H](O)[C@](C)(OCc2ccc(-c3ccccc3)cc2)C(=O)NO)no1` [5d], for which, in [2], the IC50 was 0.4 nM. Take `CCc1ccc(-c2ccc(C(=O)N[C@H](C(=O)NO)[C@@H](C)N)cc2)cc1` [7a]: the “PaLpxC: IC50” value in [2] is 0.0005 µg/mL. As to `CCc1ccc(-c2ccc(C(=O)N[C@H](C(=O)NO)[C@@H](C)NCC(=O)O)cc2)cc1` [7b], the “PaLpxC: IC50” value in [2] is 0.0004 µg/mL. `CCc1ccc(-c2ccc(C(=O)N[C@H](C(=O)NO)[C@@H](C)NCc3ccccn3)cc2)cc1` [7d]: the “PaLpxC: IC50” value in assay [2] is 0.041 µg/mL. Turning to `O=C(NO)[C@H](OCc1ccc(C#Cc2ccc(CN3CCOCC3)cc2)cc1)[C@H](O)COCc1ccccc1` [(2R,3R)-10], the “LasB Inhibition at 20 μM” value in assay [3] is recorded as “n.i. (n.i.: <10% inhibition)”. With `O=C(NO)[C@H](OCc1ccc(C#Cc2ccc(CN3CCOCC3)cc2)cc1)[C@@H](O)COCc1ccccc1` [(2R,3S)-10], the “MIC E. coli BL21(DE3)” value in assay [4] was greater than 64 µg/mL. For the same molecule, in assay [3], the “LasB Inhibition at 20 μM” value is listed as “n.i. (n.i.: <10% inhibition)”.

Consider `O=C(NO)[C@@H](OCc1ccc(C#Cc2ccc(CN3CCOCC3)cc2)cc1)[C@@H](O)COCc1ccccc1` [(2S,3S)-10], for which the “fold higher LpxC inhibitory activity than its (2R)-configured diastereomer” value in assay [5] was “about 3 fold”. Also, in assay [4], the “MIC E. coli BL21(DE3)” value was 4.0 µg/mL (≈ 7.54 µM).

For `Cc1noc(C)c1COC[C@H](O)[C@H](OCc1ccc(C#Cc2ccc(CN3CCOCC3)cc2)cc1)C(=O)NO` [(2S,3S)-40], the “LasB Inhibition at 20 μM” value in assay [3] was “n.i. (n.i.: <10% inhibition)”. As usually defined, the MIC is the lowest concentration found to suppress growth. A lower MIC goes with a more susceptible organism. Broadly, the inhibition is how much of the control response was suppressed. Consider `O=C(NC[C@H](OCc1ccc(C#Cc2ccc(CN3CCOCC3)cc2)cc1)C(=O)NO)c1ccc(-c2ccccc2)cc1` [(S)-13b], for which the MIC was 0.13 µg/mL (≈ 0.22 µM) in assay [6] and greater than 16 µg/mL in assay [7]. Besides, the “Inhibition zone K. pneumoniae ATCC 700603” value in assay [8] is on record as less than 6 mm. The “Inhibition zone E. coli TOP 10” value in assay [9] is less than 6 mm. The “Inhibition zone E. coli ATCC 35218” value in assay [10] is on record as less than 6 mm. The “Inhibition zone P. aeruginosa ATCC 27853” value in assay [11] is listed as less than 6 mm. In assay [12], this molecule had an inhibition constant (Ki) greater than 2540 nM. In [13] (20 μM), the “LasB Inhibition at 20 μM” value is listed as “little to no inhibitory activity”. Besides, the inhibition at 20 µM in assay [13] (read-out: LasB Inhibition at 20 μM) was less than 10%. Besides, the “Inhibition zone E. coli D22” value in assay [14] is on record as 11.2 ± 2.9 mm. Moreover, the “Inhibition zone E. coli BL21(DE3)” value in assay [15] is reported as no more than 6 mm.

In the case of `CC(O)C(NC(=O)c1ccc(C#CC#Cc2ccc(N)cc2)cc1)C(=O)NO` (stereo not drawn) [LPC-011], the Ki in [1] was 0.039 nM.
